From patent US20060241097A1, “Pesticidal substituted 1,2,5-thiadiazole derivatives” (FMC CORPORATION, priority 2003, published 2006)
Where a name gives a salt, the structure may show the parent alone. Read-outs that look alike come from different tables or passages of the source.

Columns and labels:
[1] = system: two-spotted spider mite (Tetranychus urticae); experiment: Foliar test against two-spotted spider mite on pinto bean seedlings; format: in vivo; conditions: foliar spray, 72 hours
Protocol: Candidate pesticides, i.e., acaricides of the present invention were evaluated on 7-8 day old pinto bean seedlings infested with two-spotted spider mite (Tetranychus urticae) in comparison with the corresponding 1,2,4-thiadiazole derivatives. The test was conducted using the test method set forth below:
One to two hours prior to the test, leaf cuttings containing about 50-75 adult mites were placed on leaves of each of duplicate pinto bean seedlings for each rate of application of candidate acaricide. Solutions of the candidate acaricide were prepared for testing by serial dilution of a standard solution comprised of an appropriate amount of acaricide in a water/acetone solvent, which contained a small amount of a surfactant. Rates of application of candidate acaricide may range from about 1000 ppm, or more, to about 1 ppm, or less, in a rate series of, for example, 1000 ppm, 300 ppm, 100 ppm, 30 ppm, 10 ppm, 3 ppm, and 1 ppm. The solutions containing each rate of application of candidate acaricide were then sprayed to run-off to both the upper and lower portions of the leaves of the mite-infested pinto bean seedlings. Each test of foliar-applied candidate acaricide included appropriate standard acaricide of known acaricidal activity and blank treatments to aid in assessing the acaricidal activity of the candidate acaricide. Upon completion of the spraying with candidate acaricide, the pinto bean seedlings were maintained in a growth chamber for a period of 72 hours. After this time, the seedlings were examined for dead acarids. […] Upon completion of the evaluation of the test, the percent control of the two-spotted spider mite for each rate of application of the candidate acaricide was determined by comparison of the total number of dead and motibund acarids to the total number of acarids in the test.

[2] = system: cotton aphid (Aphis gossypii); experiment: Foliar test against cotton aphid on cotton seedlings; format: in vivo
Protocol: Candidate pesticides, i.e., insecticides of the present invention were evaluated on 7-10 day old cotton seedlings infested with cotton aphid (Aphis gossypii). At least 12 hours prior to the test, leaf cuttings containing about 50 adult aphids were placed on leaves of each of duplicate cotton seedlings for each rate of application of candidate insecticide. Solutions of the candidate insecticide were prepared for testing by serial dilution of a standard solution comprised of an appropriate amount of insecticide in a water/acetone solvent, which contained a small amount of a surfactant. Rates of application of candidate insecticide may range from about 1000 ppm, or more, to about 3 ppm, or less, in a rate series of, for example, 1000 ppm, 100 ppm, 30 ppm, 10 ppm, and 3 ppm. The solutions containing each rate of application of candidate insecticide were then sprayed to run-off to both the upper and lower portions of the leaves of the aphid-infested cotton seedlings. Each test of foliar-applied candidate insecticide included appropriate standard insecticide of known insecticidal activity and blank treatments to aid in assessing the insecticidal activity of the candidate insecticide. Upon completion of the spraying with candidate insecticide, the cotton seedlings were maintained in a growth chamber for a period of 72 hours. After this time, the seedlings were examined for dead insects. Insects were classified as dead if they were off-color or brown and desiccated. Upon completion of the evaluation of the test, the percent mortality of the cotton aphid for each rate of application of the candidate insecticide was determined by comparison of the total number of dead insects to the total number of insects in the test.

[3] = cotton aphid, foliar spray, 1000 ppm, 72 hours
[4] = Aphis gossypii, cotton aphid, foliar spray, 300 ppm, 72 hours, read-out: Percent Mortality
[5] = Aphis gossypii, cotton aphid, foliar spray, 1000 ppm, 72 hours, read-out: Percent Mortality
[6] = Aphis gossypii, foliar, 72 h, read-out: Percent Mortality
[7] = cotton aphid, foliar spray, 300 ppm, 72 hours

## Clc1nsnc1C1(Cl)CN2CCC1CC2 (centres unmarked)
other
  melting point: 93 to 95 °C

## Clc1nsnc1C1=CC=CN(Cc2ccccc2)C1 (as salt: salt) [Compound 162, 3-chloro-4-(1-benzylpyrid-3-yl)-1,2,5-thiadiazole]
other
  melting point: 47 to 49 °C

## CN1CCC=C(c2ncns2)C1 [A, reference compound]
[1]; 300 ppm
  Percent Control: completely inactive

## Cc1nsc(C2=CCCN(C)C2)n1 [B, reference compound]
[1]; 300 ppm
  Percent Control: completely inactive

## Clc1nsnc1C1=CCCN(Cc2ccccc2)C1 [Compound 2, 3-chloro-4-[1-benzyl(1,2,5,6-tetrahydropyrid-3-yl)]-1,2,5-thiadiazole]
[2]; Aphis gossypii, cotton aphid, foliar spray, 1000 ppm, 72 hours, read-out: Percent Mortality (LP class)
  mortality at 1000 ppm: > 0%

## CCOC(=O)N1CCC=C(c2nsnc2Cl)C1 [Compound 3]
[2]; [3]
  Percent Mortality (LP class): LP (LP means that some activity was observed because the population of the cotton aphids was lowered but a value was not calculated.)

## CN1CCC=C(c2cnsn2)C1 [Compound 4, 3-[1-methyl(1,2,5,6-tetrahydropyrid-3-yl)]-1,2,5-thiadiazole]
[1]; 10 ppm
  Percent Control: 49%
[1]; 30 ppm
  Percent Control: 96%
[1]; 100 ppm
  Percent Control: 100%
[1]; 300 ppm
  Percent Control: 100%
[1]; 1000 ppm
  Percent Control: 100%
[2]; Aphis gossypii, cotton aphid, foliar spray, 100 ppm, 72 hours, read-out: Percent Mortality
  mortality at 100 ppm: 24%
[2]; [4]
  mortality at 300 ppm: 73%
[2]; [5]
  mortality at 1000 ppm: 86%

## CN1CCC=C(c2nsnc2F)C1 [Compound 23, 3-fluoro-4-(1-methyl-1,2,5,6-tetrahydropyrid-3-yl)-1,2,5-thiadiazole]
[1]; 10 ppm
  Percent Control: 35%
[1]; 30 ppm
  Percent Control: 95%
[1]; 100 ppm
  Percent Control: 98%
[1]; 300 ppm
  Percent Control: 100%
[2]; Aphis gossypii, cotton aphid, foliar spray, 1000 ppm, 72 hours, average of two tests, read-out: Percent Mortality
  mortality at 1000 ppm: 11%

## CCCCOc1nsnc1C1=CCCN(C)C1 [Compound 60]
[1]; 300 ppm
  Percent Control: 10%
[1]; 1000 ppm
  Percent Control: 41%
[2]; [3]
  Percent Mortality (LP class): LP (LP means that some activity was observed because the population of the cotton aphids was lowered but a value was not calculated.)

## CN1CCC=C(c2nsnc2Oc2ccc(F)cc2)C1 [Compound 63]
[2]; cotton aphid, foliar spray, 1000 ppm, 72 hours, average of two tests
  Percent Mortality: 48%

## C#CCOc1nsnc1C1=CCCN(C)C1 [Compound 66]
[1]; 100 ppm
  Percent Control: 52%
[1]; 300 ppm
  Percent Control: 83%
[1]; 1000 ppm
  Percent Control: 98%

## CC#CCOc1nsnc1C1=CCCN(C)C1 [Compound 67]
[1]; 300 ppm
  Percent Control: 100%
[1]; 1000 ppm
  Percent Control: 100%

## C#CCCOc1nsnc1C1=CCCN(C)C1 [Compound 68]
[2]; [3]
  Percent Mortality (LP class): LP (LP means that some activity was observed because the population of the cotton aphids was lowered but a value was not calculated.)

## CCCSc1nsnc1C1=CCCN(C)C1 [Compound 71]
[1]; 300 ppm
  Percent Control: 20%

## CCCCSc1nsnc1C1=CCCN(C)C1 [Compound 72]
[1]; 300 ppm
  Percent Control: 4%
[1]; 1000 ppm
  Percent Control: 34%

## CCCCCSc1nsnc1C1=CCCN(C)C1 [Compound 73]
[2]; [3]
  Percent Mortality (LP class): LP (LP means that some activity was observed because the population of the cotton aphids was lowered but a value was not calculated.)

## CCCCCCSc1nsnc1C1=CCCN(C)C1 [Compound 75]
[2]; [3]
  Percent Mortality: 25%

## C=CCSc1nsnc1C1=CCCN(C)C1 [Compound 77]
[1]; 300 ppm
  Percent Control: 13%

## Clc1nsnc1C1CN2CCC1CC2 (centres unmarked) [Compound 102, 3-chloro-4-quinuclidin-3-yl-1,2,5-thiadiazole]
[1]; 100 ppm
  Percent Control: 13%
[1]; 300 ppm
  Percent Control: 27%
[2]; [6]
  mortality at 300 ppm: 8%
  mortality at 1000 ppm: 33%

## COc1nsnc1C1CN2CCC1CC2 (centres unmarked) [Compound 107]
[2]; [7]
  Percent Mortality: 12%
[2]; [3]
  Percent Mortality: 24%

## CCOc1nsnc1C1CN2CCC1CC2 (centres unmarked) [Compound 108]
[2]; [7]
  Percent Mortality: 3%
[2]; [3]
  Percent Mortality: 17%

## CCCOc1nsnc1C1CN2CCC1CC2 (centres unmarked) [Compound 109]
[1]; 300 ppm
  Percent Control: 15%
[1]; 1000 ppm
  Percent Control: 65%

## CCCCOc1nsnc1C1CN2CCC1CC2 (centres unmarked) [Compound 110, 3-butoxy-4-quinuclidin-3-yl-1,2,5-thiadiazole]
[1]; 300 ppm
  Percent Control: 34%
[2]; Aphis gossypii, foliar, 72 h, read-out: Percent Mortality (LP class)
  mortality at 1000 ppm: > 0%

## Cc1nsnc1-c1cccnc1 [Compound 132, 3-methyl-4-pyrid-3-yl-1,2,5-thiadiazole]
[2]; [4]
  mortality at 300 ppm: 35%
[2]; [5]
  mortality at 1000 ppm: 82%

## CCCOc1nsnc1C1=CC=CNC1 [Compound 140]
[2]; [3]
  Percent Mortality (LP class): LP (LP means that some activity was observed because the population of the cotton aphids was lowered but a value was not calculated.)
